Assay results from ChEMBL document CHEMBL4304829, “PROTAC Degradation of IRAK4 for the Treatment of Cancer” (ACS Med Chem Lett, 2019).

Tests used:
Assay type in all cases: cell-based
[1] = target: T1, Protein cereblon/Interleukin-1 receptor-associated kinase 4 (Homo sapiens) (UniProt Q9NWZ3+Q96SW2); test: Protac activity at IRAK4 in human OCl-LY10 cells assessed as increase in E3 ubiquitin ligase mediated IRAK4 degradation at 0.01 uM incubated for 4 hrs by Western blot analysis relative to control
T1 sequence (Q96SW2 whole entry, looked up): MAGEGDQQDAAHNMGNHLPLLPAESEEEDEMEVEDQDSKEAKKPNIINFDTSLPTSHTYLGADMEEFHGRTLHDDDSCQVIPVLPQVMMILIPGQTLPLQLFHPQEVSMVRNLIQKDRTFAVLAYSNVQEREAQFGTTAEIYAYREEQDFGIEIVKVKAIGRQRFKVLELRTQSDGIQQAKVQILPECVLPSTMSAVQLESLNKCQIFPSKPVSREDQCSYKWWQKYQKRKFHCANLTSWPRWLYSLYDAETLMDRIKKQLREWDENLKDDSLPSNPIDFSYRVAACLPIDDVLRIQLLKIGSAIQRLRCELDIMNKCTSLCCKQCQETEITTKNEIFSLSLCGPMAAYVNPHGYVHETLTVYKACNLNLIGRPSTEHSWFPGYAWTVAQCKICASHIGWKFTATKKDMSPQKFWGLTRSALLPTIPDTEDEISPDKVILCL
T1 sequence (Q9NWZ3 whole entry, looked up): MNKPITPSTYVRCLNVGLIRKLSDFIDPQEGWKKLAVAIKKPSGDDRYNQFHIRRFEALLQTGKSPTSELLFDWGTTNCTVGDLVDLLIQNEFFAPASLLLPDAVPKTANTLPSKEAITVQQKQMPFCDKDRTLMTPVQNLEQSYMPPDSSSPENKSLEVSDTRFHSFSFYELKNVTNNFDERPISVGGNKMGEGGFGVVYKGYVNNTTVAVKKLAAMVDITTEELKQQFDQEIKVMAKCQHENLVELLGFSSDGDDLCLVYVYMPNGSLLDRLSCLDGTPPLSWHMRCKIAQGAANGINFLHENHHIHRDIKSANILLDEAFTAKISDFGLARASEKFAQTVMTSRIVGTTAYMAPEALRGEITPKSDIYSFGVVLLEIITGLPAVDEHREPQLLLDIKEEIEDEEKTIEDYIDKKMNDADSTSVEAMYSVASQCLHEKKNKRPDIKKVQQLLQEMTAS

[2] = target: T1, Protein cereblon/Interleukin-1 receptor-associated kinase 4 (Homo sapiens); test: Protac activity at IRAK4 in human OCl-LY10 cells assessed as increase in E3 ubiquitin ligase mediated IRAK4 degradation at 0.1 uM incubated for 4 hrs by Western blot analysis relative to control
[3] = target: T1, Protein cereblon/Interleukin-1 receptor-associated kinase 4 (Homo sapiens); test: Protac activity at IRAK4 in human OCl-LY10 cells assessed as increase in E3 ubiquitin ligase mediated IRAK4 degradation at 1 uM incubated for 4 hrs by Western blot analysis relative to control

| Activity [1] [%] | Activity [2] [%] | Activity [3] [%] | SMILES |
| --- | --- | --- | --- |
| > 50 | > 50 | > 50 | O=C1CCC(N2C(=O)c3cccc(NC4CCN(CCOCCOCCNC(=O)c5ccc(-n6cc(NC(=O)c7coc(-c8ccnc(NCC(F)(F)F)c8)n7)c(C(F)F)n6)cc5)CC4)c3C2=O)C(=O)N1 (stereo not given) |
| > 50 | > 50 | > 50 | O=C1CCC(N2C(=O)c3cccc(NCCNCCOCCNC(=O)c4ccc(-n5cc(NC(=O)c6coc(-c7ccnc(NCC8CC8)c7)n6)c(C(F)(F)F)n5)cc4)c3C2=O)C(=O)N1 (stereo not given) |
| > 50 | > 50 | > 50 | NCc1nn(-c2ccc(C(=O)NCCOCCOCCNc3cccc4c3C(=O)N(C3CCC(=O)NC3=O)C4=O)cc2)cc1NC(=O)c1coc(-c2ccnc(NCC(F)(F)F)c2)n1 (stereo not given) |
| > 20 | > 50 | > 50 | O=C1CCC(n2c(=O)oc3c(CCCOCCOCCNC(=O)c4ccc(-n5cc(NC(=O)c6coc(-c7ccnc(NCC8CC8)c7)n6)c(C(F)F)n5)cc4)cccc32)C(=O)N1 (stereo not given) |
| > 50 | > 50 | > 50 | NC(=O)c1nn(-c2ccc(CNCC3CN(CCOCCNc4cccc5c4C(=O)N(C4CCC(=O)NC4=O)C5=O)CCO3)cc2)cc1NC(=O)c1coc(-c2ccnc(NCC(F)(F)F)c2)n1 (stereo not given) |
| > 20 | > 50 | > 50 | CN(CCOCCOCCCc1ccc2c(c1)C(=O)N(C1CCC(=O)NC1=O)C2=O)Cc1ccc(-n2cc(NC(=O)c3coc(-c4ccnc(NCC5CC5)c4)n3)c(C(N)=O)n2)cc1 (stereo not given) |
| > 50 | > 50 | > 50 | CN(CCOCCOCCCc1ccc2c(c1)C(=O)N(C1CCC(=O)NC1=O)C2=O)C(=O)c1ccc(-n2cc(NC(=O)c3coc(-c4ccnc(NCC5CC5)c4)n3)c(C(N)=O)n2)cc1 (stereo not given) |
| > 50 | > 50 | > 50 | NC(=O)c1nn(-c2ccc(C(=O)NCC3CCCCN3CCOCCNc3cccc4c3C(=O)N(C3CCC(=O)NC3=O)C4=O)cc2)cc1NC(=O)c1coc(-c2ccnc(NCC(F)(F)F)c2)n1 (stereo not given) |
| > 20 | > 50 | > 50 | CN(CCOCCOCCCc1ccc2c(c1)C(=O)N(C1CCC(=O)NC1=O)C2=O)Cc1ccc(-n2cc(NC(=O)c3coc(-c4ccncc4)n3)c(C(N)=O)n2)cc1 (stereo not given) |
| > 20 | > 50 | > 50 | CN(CCOCCCc1cccc2c1C(=O)N(C1CCC(=O)NC1=O)C2=O)Cc1ccc(-n2cc(NC(=O)c3coc(-c4ccnc(NCC5CC5)c4)n3)c(C(N)=O)n2)cc1 (stereo not given) |
